According to patent publication US20230203142A1, “TREATMENT OF METABOLIC DISORDERS THROUGH THE TARGETING OF A NOVEL CIRCULATING HORMONE COMPLEX” (The President and Fellows of Harvard College, priority 2020, published 2023):

Experiments:
[1] = system: INS1 cells; assay: Glucose-stimulated insulin secretion (GSIS), INS1 cells; type: cell-based, rat
Description: This finding was recapitulated in both primary human islets from multiple non-diabetic donors (FIG. 6B), as well as INS1 cells (FIG. 6C). Human islets from review board approved healthy donors were isolated using the Edmonton protocol and provided by the IsletCore and Clinical Islet Laboratory (University of Alberta, Canada). Donors with a BMI<25 and HbA1c<6.0% were used for experiments. Islets were hand-picked three times and cultured at 37° C. in RPMI media with 10% FBS and 1% Penicillin/Streptomycin overnight before use. For INS1 cells, cells were plated at 8000 cells/well in 96-well plates and incubated overnight prior to experimentation. Insulin secretion assay was performed as above using 200 μl/well for each treatment. Cells were lysed using 80 μl ultrapure water and flash freezing. For siRNA experiments, INS1 cells were allowed to reach confluency before transfection of siRNA (Horizon Discovery; L-090381-02-0005) using Lipofectamine 3000 (Thermo Fischer; L3000015) according to manufacturer protocol for 48 hours prior to assays.
As additional controls, it was explored whether lipid binding was required for FABP4 action. […] FABP4 inhibitor studies were performed using BMS-309403 (10 nM; Sigma #BM0015).
To further elucidate the role of purinergic receptors in this signaling process, a potent and selective P2Y1 inhibitor, MRS2179 (Baurand et al., 2001) was utilized. Cells were pre-treated for P2Y1 inhibitor (100 nM; MRS2179, Tocris #0900) during the pre-incubation period.
To confirm activity of this inhibitor, INS1 cells were treated with increasing concentrations of ADP in the presence or absence of MRS2179. […] This supports the hypothesis that the ADP produced by the NDPK-ADK complex signals through the P2Y1 receptor, treatment of INS1 cells with MRS2179 abolished the increase in GSIS associated with addition of NDPK-ADK, with no effect in the presence of NDPK-ADK/FABP4, consistent with the receptor being inhibited by ATP under these conditions (FIG. 6L). […] Treatment of primary mouse islets with H118N NDPK and WT ADK had no effect on GSIS, confirming the requirement of NDPK kinase activity for the biology (FIG. 6N). Additionally, it was modeled that the inhibitory effect of the NDPK-ADK/FABP4 complex on GSIS is dependent on the production of ATP by ADK, as activated by the presence of FABP4. To test this, an ADK inhibitor was utilized. Cells were pre-treated with ADK inhibitor (2 nM; Santa Cruz #sc-202900) during the pre-incubation period.

[2] = system: INS1 cells; assay: Cytosolic calcium flux, Fura-2 AM imaging; details: 20 mM glucose
Description: Cells were pre-treated with P2Y1 activator (0.5 nM; MRS2365 Tocris #2157) during the pre-incubation period. Cells were stimulated with ATP (5 μM; Promega #V915A) or ADP (2.5 μM; Promega #V916A) acutely with the addition of LG and HG KRB during the serial stimulation. Cells were treated with 100 ng/ml recombinant human FABP4 (produced in-house), 200 ng/ml recombinant human ADK (Novus Biologicals, product number NBP1-44382 or R&D Systems, product number 8024-AK-025), or 100 ng/ml recombinant human NDPK-A (Acro Biosystems, product number NM1-H5147) where indicated, for the pre-incubation period, as well as during the glucose stimulation.
Briefly, INS1 cells were plated in imaging disks at 5000 cells/dish and cultured in standard media overnight. Cells were washed with PBS, and incubated in imaging buffer without glucose, with or without calcium containing Fura-2 AM (2 mM; ThermoFisher F1201) for 30 minutes at 37° C. Cells were washed twice with fresh PBS, and placed in lml imaging buffer. Calcium flux was evaluated with the addition of 20 mM glucose, 30 mM KCl, or 1 μM Thapsigargin. Extracellular calcium was added at 1.5 mM. Calcium flux measurements were performed using an epifluorescence system coupled to a Ti-S/L100 inverted microscope L100 with fluorescent light source (X-Cite 120LED System) equipped with Lambda DG-4 Plus for UV ratiometric probes. Excitations at 340 nm and 380 nm were used and an emission of 510 nm. Analysis was performed using ImageJ software. Calcium flux was measured from 50 cells per coverslip.

[3] = system: CA33 (a-Ab); assay: MST epitope mapping: nested NDPK-A peptides with a-Ab; type: binding
Description: To define the binding site of a-Ab on NDPK, a nested series of peptides were generated covering human NDPK-A and interaction of each peptide with a-Ab was evaluated by Microscale Thermophoresis (MST) (FIG. 4D). MST is a technology for the interaction analysis of biomolecules. MST is the directed movement of particles in a microscopic temperature gradient. Any change of the hydration shell of biomolecules due to changes in their structure/conformation results in a relative change of the movement along the temperature gradient and is used to determine binding affinities. MST allows measurement of interactions directly in solution without the need of immobilization to a surface (immobilization-free technology).

[4] = target: T1, recombinant NDPK (Homo sapiens, UniProt P15531, H118N); assay: Recombinant kinase activity assay, NDPK (ADP-Glo/Kinase-Glo); type: biochemical; details: kinase activity of NDPK mutant
T1 construct: purchased Acro Biosystems NM1-H5147
T1 sequence (P15531 whole entry H118N): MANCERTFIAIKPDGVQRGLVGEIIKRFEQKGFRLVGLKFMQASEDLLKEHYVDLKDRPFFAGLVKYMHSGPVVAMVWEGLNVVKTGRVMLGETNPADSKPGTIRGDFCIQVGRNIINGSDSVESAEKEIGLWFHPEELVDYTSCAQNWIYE
Description: (§1) An on-bead kinase assay was developed to measure the activity of endogenous NDPK and ADK pulled down from serum using a-Ab or c-Ab conjugated beads. Both NDPK and ADK are bi-directional kinases that will produce ATP or ADP depending on the substrates provided (FIGS. 4B-C). Kinase activity assays were performed in 384-well plates in reaction buffer (PBS with 0.1% BSA, 0.01% F-127, 5 mM MgCl2). Experiments with recombinant proteins were performed at final concentrations of 40 μg/ml for ADK and FABP4, and 20 ug/ml for NDPK, and a reaction volume of 10 μl. Antibodies were used at a final concentration of 80 ug/ml. […] Proteins and substrates were incubated for 1 hr at room temperature, and ADP and ATP production were monitored using ADP-Glo and Kinase-Glo kits, respectively, according the manufacturer instructions (V6930 and V6711 Promega, USA). Luminescence was quantified using a SpectraMax Paradigm plate reader 30 min after the addition of substrate. Consistent with the MS results, ADK activity, as measured by generation of ATP, was specifically observed in samples pulled down with a-Ab but not c-Ab (FIG. 5A). […] To test this possibility, the ATP and ADP generating activity of recombinant ADK was assessed in the presence of the proposed complex components.

[5] = system: primary mouse islets; assay: Glucose-stimulated insulin secretion (GSIS), mouse islets; type: cell-based; details: primary / WT mouse islets
Description: Primary islet isolation from mice was performed as previously described (Batchuluun et al., 2018; Prentice et al., 2014) and GSIS was assessed following acute treatment with NDPK-ADK in the presence or absence of FABP4. Insulin secretion assays were performed as previously described (Prentice et al., 2014). For primary islets, 20 islets were hand-picked into 1.5 ml tubes, washed twice with Krebs Ringer Buffer (KRB) without glucose, and pre-incubated in 500 μl low glucose (LG; 2.8 mM) KRB for 1 hour at 37° C. KRB was then removed and 250 μl of fresh LG KRB added. Islets were incubated for 20 minutes at 37° C. Supernatant was collected and 250 μl high glucose (HG; 16.7 mM) KRB added. Islets were incubated for 20 minutes at 37° C. In conditions where KCl was used, HG KRB was collected, and 250 μl KC1 (16.7 mM glucose, 30 mM KCl) KRB added. Islets were incubated for 20 minutes at 37° C., and supernatant collected. Following the stimulation protocol, cells were lysed in 100 μl acid ethanol (70% ethanol, 1% HCl in water) and stored at 4° C. overnight. Samples were evaporated using a SpeedVac until dried, and resuspended in 60 μl ultrapure water. DNA was quantified by Nanodrop (ThermoFisher, USA). Insulin from supernatant was quantified using insulin HTRF (Insulin Ultrasensitive Assay kit 62IN2PEH; Cisbio, USA).

[6] = target: T2, recombinant ADK (Homo sapiens, UniProt P55263); assay: Recombinant kinase activity assay, ADK (Kinase-Glo); type: biochemical; details: recombinant ADK plus the added component
T2 construct: purchased Novus Biologicals or R&D Systems NBP1-44382 or 8024-AK-025
T2 sequence (P55263 whole entry): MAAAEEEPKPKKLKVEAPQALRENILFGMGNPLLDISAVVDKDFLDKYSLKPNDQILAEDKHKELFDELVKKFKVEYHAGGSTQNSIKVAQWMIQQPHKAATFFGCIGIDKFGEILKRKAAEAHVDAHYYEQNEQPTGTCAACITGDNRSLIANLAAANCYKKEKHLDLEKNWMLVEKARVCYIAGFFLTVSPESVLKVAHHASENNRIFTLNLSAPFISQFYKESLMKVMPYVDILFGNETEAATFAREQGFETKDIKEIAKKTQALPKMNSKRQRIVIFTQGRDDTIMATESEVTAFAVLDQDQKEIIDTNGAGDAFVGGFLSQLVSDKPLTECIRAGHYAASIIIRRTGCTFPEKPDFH
Description: as §1

Nc1ncnc2c1ncn2[C@@H]1O[C@H](COP(=O)(O)OP(=O)(O)O)[C@@H](O)[C@H]1O [ADP]
GSIS in the presence of the NDPK-ADK/FABP4 complex [1]: potentiated
insulin secretion / GSIS with exogenous nucleotide [1]: potentiated

Nc1ncnc2c1ncn2[C@@H]1O[C@H](COP(=O)(O)OP(=O)(O)OP(=O)(O)O)[C@@H](O)[C@H]1O [ATP]
increase in GSIS with addition of NDPK-ADK [1]: blunted
insulin secretion / GSIS with exogenous nucleotide [1]: suppressed

Nc1ncnc2c1ncn2[C@@H]1O[C@H](COP(=O)(O)OP(=O)(O)OP(O)(O)=S)[C@@H](O)[C@H]1O [ATPgS]
increase in GSIS with addition of NDPK-ADK [1]: more pronounced

CCc1c(-c2ccccc2)c(-c2ccccc2)nn1-c1ccccc1-c1cccc(OCC(=O)O)c1 [BMS-309403]
effect on suppressing NDPK-ADK-potentiated GSIS as WT recombinant FABP4 ([1]; FABP4 mutant or FABP4 treated with inhibitor): same effect

CNc1ncnc2c1ncn2[C@H]1C[C@H](OP(=O)(O)O)[C@@H](COP(=O)(O)O)O1 [MRS2179]
GSIS in the presence of the NDPK-ADK/FABP4 complex [1]: no effect
increase in GSIS with addition of NDPK-ADK [1]: abolished
ADP-stimulated increase in GSIS ([1]; increasing concentrations of ADP): completely inhibited

CSc1nc(N)c2ncn([C@H]3[C@H](O)[C@H](O)[C@]4(COP(=O)(O)OP(=O)(O)O)C[C@H]34)c2n1 [MRS2365, reference compound]
extracellular calcium influx in response to glucose [2]: rescued

GPVVAMVWEGLNVVK [Peptide 8]
binding with a-Ab (in words) [3]: High affinity binding

H118N NDPK: kinase-dead H118N NDPK mutant
capacity to generate ADP [4]: no capacity
GSIS [5]: no effect

IKPDGVQRGLVGEII [Peptide 2]
binding with a-Ab (in words) [3]: Low affinity binding

NDPK: recombinant human NDPK-A (Acro Biosystems)
ADK activity to generate ATP [6]: no effect

VGEIIKRFEQKGFRL [Peptide 3]
binding with a-Ab (in words) [3]: Low affinity binding
